From a melting point compilation (Tetko et al.; mined from patent text by program, amines drawn as free bases though some values may be those of a salt) come the findings set out here.

Where only a bound is given, the exact number is not on record here.

The compound `C(=C\c1nc(CSc2ccc(CCCn3ccnc3)cc2)co1)/c1ccccc1` showed a melting point of 74 to 75 °C.
To `Cn1c(CO)cc2ccccc21` belongs 92.8 °C; to `COC(=O)C(Sc1ccc(Cl)cc1)c1ccc(I)cc1` (centres undefined), 44 to 46 °C; to `CNS(=O)(=O)Nc1ncccc1C(=O)OC`, 133 to 139 °C.
The compound `Cc1ccc(Cl)cc1C(=O)CO` gave a melting point of 55 to 57 °C.
`COc1cccc(OC)c1-c1ccc(C[C@H](NC(=O)c2c(Cl)cccc2Cl)C(=O)O)cc1NC(C)=O` displayed a melting point of 142 to 144 °C.
As for `O=S(=O)(CCc1ccc(O)cc1)CC1CCC1`, the melting point came out at 112 °C.
In turn, `O=c1[nH]ncc2c1c(O)nc1cc(Cl)c(Cl)cc12` gave a melting point greater than 350 °C.
Regarding `CC(=O)c1ccc2c(c1)ncn2-c1cccc(-n2ccnc2)c1`, the melting point lay in the range of 205 to 206 °C.
`CCCc1nn(-c2ccc(C(F)(F)F)cn2)cc1CCCCOc1cc(CC(=O)O)ccc1OC` showed a melting point of 147 to 148 °C.
Compound `CCN(CC)C(=O)n1cnc(Sc2cc(F)c(C#N)cc2F)n1` showed a melting point of 80 °C.
As for `O=C1NC(=O)N2c3ccc(Cl)cc3[C@H]3CCN4CCC[C@H]1[C@H]4[C@H]32` (racemic), the melting point was found to be 243 °C.
`CC(=CC(=O)O)C(=O)NN` gave a melting point of 281 to 284 °C.
Compound `CC(=O)c1ccc(-c2ccc(Cl)cc2)c(N)c1` came in with a melting point of 139 to 140 °C.
Regarding `OCc1csc(Cl)c1Cl`, the melting point lay within 63 to 65 °C.
Compound `Cn1c(=O)oc2cc(C(O)CBr)cnc21` (centres undefined) had a melting point of 127 to 129 °C.
To `CCCCCCCCCCCCc1c[nH]c2cc(C(=O)OC)ccc12` belongs 85 to 89 °C; to `O=C(Cc1ccccc1)Nc1ccnc(NC(=O)NCc2ccccn2)c1`, 219 to 220 °C; to `O=C(O)c1ccc(CN2C(=O)C3(COc4cc5c(cc43)OCCO5)c3ccccc32)o1` (centres undefined), 192 to 195 °C.
To `CC(C)n1cc(C(=O)O)c2ccc([N+](=O)[O-])cc21` belongs 242 to 243 °C.
`CCCCc1nc2ccc(C(=O)OC)cc2n1Cc1ccc(-c2ccccc2-c2nnn[nH]2)cc1` yielded a melting point of 224 to 225 °C.
`COC(=O)c1ccc(NC2COC(=O)C2)cc1` (centres undefined) came in with a melting point of 136 to 138 °C.
To `NCc1ccc(N2CCC2)cc1` belongs 58 to 60 °C; to `CCOC(=O)C1C=Nc2c(ccc3cccnc23)C1=O` (centres undefined), 242 to 244 °C; to `O=C(O)CCc1c(-c2cc(Cl)ccc2O)c2cc(C(F)(F)F)ccc2[nH]c1=O`, 255 to 258 °C.
For `Cc1ccccc1C(=O)Nc1ccc(C(=O)N2CCCC(CN)c3ccccc32)cc1` (centres undefined), the melting point lay in the range of 233 to 235 °C.
Consider `Cc1noc(-c2cn(-c3cccc(Br)c3)cn2)n1`, for which the melting point lay in the range of 200 to 202 °C.
The compound `O=C1c2ccccc2C(O)(c2ccc(Cl)cc2)N1Cc1ccc(Cl)cc1` (centres undefined) showed a melting point of 156 to 157 °C.
For `CN(C)c1c(C#N)cnc2c(NC(=O)c3c(Cl)cccc3Cl)cccc12`, the melting point is 227 to 228 °C.
Turning to `CN(C)CCNC(=O)c1cccc(-c2cccc3cn(Cc4cccc(C(F)(F)F)c4)nc23)c1`, the melting point fell in the range of 102 to 103 °C.
To `O=C(CCCN1CCC(NC(=O)c2ccccc2)CC1)c1ccccc1` belongs 143 to 144 °C.
In turn, `COc1ccc(-n2ccc(=O)c(-c3ccnn3-c3ccccc3)n2)cc1` displayed a melting point of 179 to 180 °C.
Regarding `CCN(CC)C(=O)n1cnc(S(=O)(=O)Cl)n1`, the melting point fell in the range of 44 to 47 °C.
In the case of `CC(C)(C)OC(=O)Nc1c(F)cccc1[N+](=O)[O-]`, the melting point is 100 to 101 °C.
`CCCCC(CCCC)n1c(=O)sc2c(=O)[nH]c(N)nc21` showed a melting point greater than 175 °C.
Consider `CC(=O)Nc1cc(O)c(C(=O)CCCCl)cc1Cl`, for which the melting point is 103 to 106 °C.
To `CN1C[C@H]2c3ccccc3[C@H](c3ccccc3)CN2C(=O)C1=O` (relative stereo) belongs 193 to 194 °C.
In turn, `CCOC(=O)Cc1nc(-c2ccc(F)cc2)oc1CC(C)C` gave a melting point of 60 to 61 °C.
Turning to `Cc1cccc(C(=O)c2cccc(N)c2)c1`, the melting point is 110 °C.
In the case of `COc1ccc2nc(C(F)(F)F)c(C(=O)Nc3nccs3)c(O)c2c1`, the melting point is greater than 270 °C.
Regarding `CC[C@H](C)CNC(=O)[C@@H](C[C@H](O)[C@H](CC1CCCCC1)NC(=O)OC(C)(C)C)C(C)(C)O`, the melting point fell in the range of 64 to 67 °C.
On to `Fc1ccc(Nc2nnc(Cc3ccncc3)c3ccccc23)cc1Cl`, for which the melting point lay within 185 to 187 °C.
Turning to `C=CCc1c(OCOC)cc(OCOC)c(C(=O)C=Cc2ccc(OCOC)cc2)c1O`, the melting point lay in the range of 68 to 69 °C.
`C=CCN1C(=O)C2CC2(c2ccc(N)cc2)C1=O` (centres undefined) displayed a melting point of 104 to 106 °C.
To `Cc1cc(Cl)nc(N(C=O)c2ccccc2)n1` belongs 150 to 152 °C; to `CCC(=O)c1cc2n(c(=O)c1C)Cc1cc3ccccc3nc1-2`, 233 to 234 °C; to `OC(c1cc(-c2ccc(F)cc2)c(-c2ccc(F)cc2)[nH]1)(C(F)(F)F)C(F)(F)F`, 112 to 113 °C.
Compound `NC(=O)N1CCCC1COc1cncc(Cl)c1` (centres undefined) returned a melting point of 95 °C.
`Cn1cc(C2=C(c3cn(C4CN(C(c5ccccc5)c5ccccc5)C4)c4ccccc34)C(=O)NC2=O)c2ccccc21` gave a melting point of 102 to 105 °C.
Compound `COc1ccc(NC2=NN(c3ccccc3)CC2)cc1` had a melting point of 153 to 154 °C.
Turning to `CC1(C)CCC(C)(C)c2cc(-c3cc(-c4ccc(C(=O)O)cc4)ccc3OCc3ccccc3)ccc21`, the melting point is 241 to 244 °C.
The compound `CC(C)C[C@H](N)[C@@H](O)CCS(=O)(=O)CCc1ccccc1` yielded a melting point of 153 to 154 °C.
In the case of `COc1cc(C=O)cc2c1OCCC2=O`, the melting point amounted to 139 °C.
`CCCOc1cc(CCCOc2c(CC(=O)O)cccc2OC)n(Cc2ccc(F)cc2F)n1`: the melting point fell in the range of 77 to 80 °C.
As for `CCNC(=O)c1ccc(-n2nnc(C(=O)NC3CC3)c2CSC)cc1`, the melting point worked out at 192 °C.
`O=C(O)COc1cc2cc(CO)sc2c(Cl)c1Cl` had a melting point of 188 °C.
The compound `CSc1nn2c(N3CCN(C)CC3)ccnc2c1S(=O)(=O)c1ccccc1` displayed a melting point of 107 to 109 °C.
To `CCCOC(C)c1ccc(-c2ccc(OCc3ccccc3)cc2)cc1` (single isomer, unassigned; (+)) belongs 106 to 108 °C; to `CCn1cc(-c2ccc3c(c2)c(C2CCN(CCN4CCNC4=O)CC2)cn3-c2ccc(F)cc2)nn1`, 132 to 134 °C; to `CCNc1cc(-c2c[nH]c(C)n2)ccn1`, 214 to 216 °C.
Compound `CCOCCn1c(C)c(C2(c3ccc(N(C)C)cc3C)OC(=O)c3ccccc32)c2ccccc21` (centres undefined) showed a melting point of 170 to 171 °C.
Take `Cc1c(F)c(F)c(-n2ncc(C#N)c2N)c(F)c1F`: the melting point is 169 to 170 °C.
The compound `COc1ccc(C2=Cc3ccc(O)cc3OC2)cc1` gave a melting point of 161 to 163 °C.
Turning to `CCOCc1nc2c(N)nc3ccc(OCc4ccccc4)cc3c2n1CC(C)C`, the melting point fell in the range of 183 to 184 °C.
For `CN(C)C=Cc1ncc([N+](=O)[O-])n1CCOC(=O)c1ccccc1`, the melting point fell in the range of 153 to 154 °C.
To `Cc1noc(NS(=O)(=O)c2ccccc2-c2ccc(-c3ncco3)cc2CN(C)C(=O)c2ccccc2F)c1C` belongs 127 to 137 °C.
As for `CC(=O)C=Cc1ccc2c(c1)Cc1ccccc1-2`, the melting point was 146 to 148 °C.
To `Cc1ccc2c(c1)C=C(N1CCN(CCN3CCOC3=O)CC1)c1cc(Cl)ccc1S2` belongs 194 to 196 °C; to `Cc1ccc(-n2nc(C)c(C(=O)O)n2)cc1`, 230 to 232 °C; to `Cn1c(Cc2ccc(Cl)cc2Cl)nc2cc(C(=O)O)ccc2c1=O`, 266 to 271 °C.
To `COc1ccc2c(c1)C=Cc1cc(C)ccc1C2c1cn(-c2ccnc(N(C)CC(=O)Nc3nc(CC(=O)O)cs3)n2)c(=O)[nH]c1=O` (centres undefined) belongs 186 °C; to `O=C(O)CNS(=O)(=O)c1ccc(N2CCN(c3ccccc3)CC2)cc1`, 120 to 124 °C.
`Cn1cc(C(=O)NCc2ccc(Cl)cc2)c(=O)c2cc(CN3CCOCC3)cc(I)c21` yielded a melting point of 156 to 158 °C.
Take `CCc1noc(C(=O)Nc2ccccc2)c1C(=O)O`: the melting point is 150 to 152 °C.
`Cn1cc2c(n1)Nc1ccc(Cl)cc1NC2=S` registered a melting point greater than 260 °C.
To `C[C@H](NC(=O)COCCNC(=O)c1ccc(Cl)cc1)C(=O)N[C@H](CCC(=O)OCc1ccccc1)C(N)=O` belongs 141 to 143 °C; to `Cc1c(-c2ccccc2)oc2c(C(=O)NCCCN3CCC(C(=O)c4ccc(F)cc4)CC3)cccc2c1=O`, 181 to 183 °C.
For the compound `COC(=O)C(C)Oc1cc(Cl)ccc1COc1ccc(-c2nn(C)c(OC(F)F)c2Cl)cc1` (centres undefined), the melting point was 61 to 64 °C.
As to `COC(=O)c1ccc2c(c1)COC(C(Cl)(Cl)Cl)N2` (centres undefined), the melting point is 116 to 117 °C.
Compound `CC(C)c1c(C(=O)Nc2ccc(C(=O)O)cc2)c(-c2ccccc2)c(-c2ccc(F)cc2)n1CC[C@@H]1C[C@H](CC(=O)OC(C)(C)C)OC(C)(C)O1` returned a melting point of 240 to 242 °C.
`CC(=O)OC(C(=O)O)(C(=O)N(C(C)=O)C(C)=O)c1ccc(Cl)c(C)c1` (centres undefined): the melting point is 169 to 171 °C.
`CS(=O)(=O)N1CC(CN2CCCC2)Cc2ccccc21` (centres undefined) registered a melting point of 72 to 73 °C.
To `CC(C)On1nnc2ccc(Cn3ccnc3)cc21` belongs 114 °C; to `CCOC(=O)C=Cc1cc(C=CS(=O)(=O)c2ccccc2)cc(Cc2cccnc2)c1`, 118 to 120 °C.
In turn, `Cc1cc(CC(=O)O)n(C)c1C(=O)c1ccc2n1CCC2` showed a melting point of 132 to 134 °C.
Turning to `CCC1SCCCN1C(=S)Nc1cccc(Br)c1` (centres undefined), the melting point lay within 77 to 79 °C.
`CC(C)Oc1ccc(C(=O)O)c(Cl)n1` showed a melting point of 173 to 174 °C.
The compound `FC(F)(F)c1nnc(-c2ccc(Cl)cc2)n1-c1ccc(Cl)cc1` yielded a melting point of 184 °C.
As to `CC(C)n1nc(-c2c(Nc3ccccc3)nc(N)nc2-c2ccccc2)ccc1=O`, the melting point was in the range of 240 to 242 °C.

Usually melting point stands for the temperature, or range, at which the solid turns liquid.
